Experimental data: patent US20070049564A1 (Wyeth, priority 2005, published 2007)
Converted amounts (≈) assume the structure as drawn. Read-outs that look alike come from different tables or passages of the source.

Columns and labels:
E. coli GC 2235 = assay: MIC, broth microdilution; conditions: Escherichia coli
S. aureus GC 2216 = assay: MIC, broth microdilution; conditions: Staphylococcus aureus
E. coli GC 2203 = assay: MIC, broth microdilution; conditions: Escherichia coli
S. aureus GC 6335 = assay: MIC, broth microdilution; conditions: Staphylococcus aureus
E. faecalis GC 2267 = assay: MIC, broth microdilution; conditions: Enterococcus faecalis
E. coli GC 3226 = assay: MIC, broth microdilution; conditions: Escherichia coli
E. coli GC 4559 = assay: MIC, broth microdilution; conditions: Escherichia coli
E. coli GC 2271 = assay: MIC, broth microdilution; conditions: Escherichia coli
S. aureus GC 6467 = assay: MIC, broth microdilution; conditions: Staphylococcus aureus
E. faecium GC 4556 = assay: MIC, broth microdilution; conditions: Enterococcus faecium
S. agalactiae GC 4564 = assay: MIC, broth microdilution; conditions: Streptococcus agalactiae
S. typhimurium GC 2172 = assay: MIC, broth microdilution; conditions: Salmonella enterica, TYPHIMURIUM
E. faecalis GC 2242 = assay: MIC, broth microdilution; conditions: Enterococcus faecalis
Staph. aureus Smith = assay: In vivo activity (oral, iv; ED50) against Staph. aureus Smith in mice
E. coli GC 2270 = assay: MIC, broth microdilution; conditions: Escherichia coli
P. aeruginosa GC 2214 = assay: MIC, broth microdilution; conditions: Pseudomonas aeruginosa
E. coli GC 2231 = assay: MIC, broth microdilution; conditions: Escherichia coli
S. pneumoniae* GC 4465 = assay: MIC, broth microdilution; conditions: Streptococcus pneumoniae
E. coli GC 2232 = assay: MIC, broth microdilution; conditions: Escherichia coli
E. coli GC 4560 = assay: MIC, broth microdilution; conditions: Escherichia coli
[1] = read-out: MINIMAL INHIBITORY CONCENTRATION MIC, pre-incubated in Mouse Serum
[2] = read-out: MINIMAL INHIBITORY CONCENTRATION MIC, pre-incubated in Water

MIC (E. coli GC 2235; GC2235, read-out: MINIMAL INHIBITORY CONCENTRATION MIC, pre-incubated in Mouse Serum): 0.5 µg/mL (≈ 0.595 µM)
MIC (E. coli GC 2235; GC2235, read-out: MINIMAL INHIBITORY CONCENTRATION MIC, pre-incubated in Water): > 64 µg/mL
MIC (S. aureus GC 2216; GC2216, read-out: MINIMAL INHIBITORY CONCENTRATION MIC, pre-incubated in Mouse Serum): 1 µg/mL (≈ 1.19 µM)
MIC (S. aureus GC 2216; GC2216, read-out: MINIMAL INHIBITORY CONCENTRATION MIC, pre-incubated in Water): 64 µg/mL (≈ 76.2 µM)
MIC (E. coli GC 2203; GC2203, read-out: MINIMAL INHIBITORY CONCENTRATION MIC, pre-incubated in Mouse Serum): 0.5 µg/mL (≈ 0.595 µM)
MIC (E. coli GC 2203; GC2203, read-out: MINIMAL INHIBITORY CONCENTRATION MIC, pre-incubated in Water): > 64 µg/mL
MIC (S. aureus GC 6335; GC6335, read-out: MINIMAL INHIBITORY CONCENTRATION MIC, pre-incubated in Mouse Serum): 2 µg/mL (≈ 2.38 µM)
MIC (S. aureus GC 6335; GC6335, read-out: MINIMAL INHIBITORY CONCENTRATION MIC, pre-incubated in Water): 64 µg/mL (≈ 76.2 µM)
MIC (E. faecalis GC 2267; GC2267, read-out: MINIMAL INHIBITORY CONCENTRATION MIC, pre-incubated in Mouse Serum): 2 µg/mL (≈ 2.38 µM)
MIC (E. faecalis GC 2267; GC2267, read-out: MINIMAL INHIBITORY CONCENTRATION MIC, pre-incubated in Water): 64 µg/mL (≈ 76.2 µM)
MIC (E. coli GC 3226; GC3226, read-out: MINIMAL INHIBITORY CONCENTRATION MIC, pre-incubated in Mouse Serum): 8 µg/mL (≈ 9.52 µM)
MIC (E. coli GC 3226; GC3226, read-out: MINIMAL INHIBITORY CONCENTRATION MIC, pre-incubated in Water): > 64 µg/mL
MIC (E. coli GC 4559; GC4559, read-out: MINIMAL INHIBITORY CONCENTRATION MIC, pre-incubated in Mouse Serum): 1 µg/mL (≈ 1.19 µM)
MIC (E. coli GC 4559; GC4559, read-out: MINIMAL INHIBITORY CONCENTRATION MIC, pre-incubated in Water): > 64 µg/mL
MIC (E. coli GC 2271; GC2271, read-out: MINIMAL INHIBITORY CONCENTRATION MIC, pre-incubated in Mouse Serum): 0.5 µg/mL (≈ 0.595 µM)
MIC (E. coli GC 2271; GC2271, read-out: MINIMAL INHIBITORY CONCENTRATION MIC, pre-incubated in Water): > 64 µg/mL
MIC (S. aureus GC 6467; GC6467, read-out: MINIMAL INHIBITORY CONCENTRATION MIC, pre-incubated in Mouse Serum): 4 µg/mL (≈ 4.76 µM)
MIC (S. aureus GC 6467; GC6467, read-out: MINIMAL INHIBITORY CONCENTRATION MIC, pre-incubated in Water): > 64 µg/mL
MIC (E. faecium GC 4556; GC4556, read-out: MINIMAL INHIBITORY CONCENTRATION MIC, pre-incubated in Mouse Serum): 2 µg/mL (≈ 2.38 µM)
MIC (E. faecium GC 4556; GC4556, read-out: MINIMAL INHIBITORY CONCENTRATION MIC, pre-incubated in Water): 64 µg/mL (≈ 76.2 µM)
MIC (S. agalactiae GC 4564; GC4564, read-out: MINIMAL INHIBITORY CONCENTRATION MIC, pre-incubated in Mouse Serum): 0.5 µg/mL (≈ 0.595 µM)
MIC (S. agalactiae GC 4564; GC4564, read-out: MINIMAL INHIBITORY CONCENTRATION MIC, pre-incubated in Water): 8 µg/mL (≈ 9.52 µM)
MIC (S. typhimurium GC 2172; [1]): 4 µg/mL (≈ 4.76 µM)
MIC (S. typhimurium GC 2172; [2]): > 64 µg/mL
MIC (E. faecalis GC 2242; GC2242, read-out: MINIMAL INHIBITORY CONCENTRATION MIC, pre-incubated in Mouse Serum): 2 µg/mL (≈ 2.38 µM)
MIC (E. faecalis GC 2242; GC2242, read-out: MINIMAL INHIBITORY CONCENTRATION MIC, pre-incubated in Water): 32 µg/mL (≈ 38.1 µM)
MIC (E. coli GC 2270; GC2270, read-out: MINIMAL INHIBITORY CONCENTRATION MIC, pre-incubated in Mouse Serum): 1 µg/mL (≈ 1.19 µM)
MIC (E. coli GC 2270; GC2270, read-out: MINIMAL INHIBITORY CONCENTRATION MIC, pre-incubated in Water): > 64 µg/mL
MIC (P. aeruginosa GC 2214; GC2214, read-out: MINIMAL INHIBITORY CONCENTRATION MIC, pre-incubated in Mouse Serum): > 64 µg/mL
MIC (P. aeruginosa GC 2214; GC2214, read-out: MINIMAL INHIBITORY CONCENTRATION MIC, pre-incubated in Water): > 64 µg/mL
MIC (E. coli GC 2231; GC2231, read-out: MINIMAL INHIBITORY CONCENTRATION MIC, pre-incubated in Mouse Serum): 1 µg/mL (≈ 1.19 µM)
MIC (E. coli GC 2231; GC2231, read-out: MINIMAL INHIBITORY CONCENTRATION MIC, pre-incubated in Water): > 64 µg/mL
MIC (S. pneumoniae* GC 4465; [1]): 0.25 µg/mL (≈ 0.298 µM)
MIC (S. pneumoniae* GC 4465; [2]): 0.5 µg/mL (≈ 0.595 µM)
MIC (E. coli GC 2232; GC2232, read-out: MINIMAL INHIBITORY CONCENTRATION MIC, pre-incubated in Mouse Serum): 1 µg/mL (≈ 1.19 µM)
MIC (E. coli GC 2232; GC2232, read-out: MINIMAL INHIBITORY CONCENTRATION MIC, pre-incubated in Water): > 64 µg/mL
MIC (E. coli GC 4560; GC4560, read-out: MINIMAL INHIBITORY CONCENTRATION MIC, pre-incubated in Mouse Serum): 0.25 µg/mL (≈ 0.298 µM)
MIC (E. coli GC 4560; GC4560, read-out: MINIMAL INHIBITORY CONCENTRATION MIC, pre-incubated in Water): > 64 µg/mL
Structure (SMILES): CCCCN(CC(=O)Nc1cc(N(C)C)c2c(c1O)C(=O)C1=C(O)[C@]3(O)C(=O)C(C(N)=O)=C(O)[C@@H](N(C)C)[C@@H]3C[C@@H]1C2)C(=O)OCOC(=O)c1ccc(-c2ccccc2)cc1 [Example 21, ({[(2-{[(5aR,6aS,7S,10aS)-9-(aminocarbonyl)-4,7-bis(dimethylamino)-1,8,10a,11-tetrahydroxy-10,12-dioxo-5,5a,6,6a,7,10,10a,12-octahydrotetracen-2-yl]amino}-2-oxoethyl)(butyl)amino]carbonyl}oxy)methyl 1,1′-biphenyl-4-carboxylate]
ED50 (Staph. aureus Smith; Staphylococcus aureus, in Mus musculus, po, read-out: ED50 Staph Smith SOD): > 32 mg/kg
ED50 (Staph. aureus Smith; iv, read-out: ED50 Staph Smith SIV): 0.77 mg/kg
